Experimental data taken from ChEMBL document CHEMBL1909570, “Synthesis and antibacterial activity of N4-mono alkyl derivatives of novel glycopeptide LYV07ww01” (2011).
Values after ≈ are worked out from the molar mass of the structure shown.

How the values were obtained:
Format in all cases: functional
Enterococcus faecalis [1] = assay: microbe, parasite or virus in culture; settings: ATCC 29212
Description: Antibacterial activity against vancomycin-sensitive Enterococcus faecalis ATCC 29212 by CLSI agar microdilution method

Enterococcus faecium [2] = assay: Antibacterial activity against vancomycin-sensitive Enterococcus faecium ATCC 35667 by CLSI agar microdilution method relative to LYV07ww01
Staphylococcus aureus [3] = assay: microbe, parasite or virus in culture; settings: ATCC 25923
Description: Antibacterial activity against methicillin-sensitive Staphylococcus aureus ATCC 25923 by CLSI agar microdilution method

Staphylococcus aureus [4] = assay: Antibacterial activity against Staphylococcus aureus 26003 by CLSI agar microdilution method
Staphylococcus aureus [5] = assay: microbe, parasite or virus in culture; settings: ATCC 33591
Description: Antibacterial activity against methicillin-resistant Staphylococcus aureus ATCC 33591 by CLSI agar microdilution method

Streptococcus pneumoniae [6] = assay: Antibacterial activity against Streptococcus pneumoniae 31002 by CLSI agar microdilution method
Staphylococcus = assay: Antibacterial activity against Staphylococcus albus 26101 by CLSI agar microdilution method
Enterococcus faecalis [7] = assay: microbe, parasite or virus in culture; settings: ATCC 51299
Enterococcus faecium [8] = assay: Antibacterial activity against Enterococcus faecium 32220 by CLSI agar microdilution method
Streptococcus pneumoniae [9] = assay: Antibacterial activity against penicillin-intermediate Streptococcus pneumoniae ATCC 49619 by CLSI broth microdilution method
Streptococcus pneumoniae [10] = assay: Antibacterial activity against penicillin-resistant Streptococcus pneumoniae MSPN 0003 by CLSI broth microdilution method
[11] = tested on: Staphylococcus epidermidis; assay: Antibacterial activity against Staphylococcus epidermidis 26069 by CLSI agar microdilution method
Enterococcus faecalis [12] = assay: Antibacterial activity against vancomycin-resistant Enterococcus faecalis ATCC 51299 by CLSI agar microdilution method relative to vancomycin
Enterococcus faecium [13] = assay: Antibacterial activity against vancomycin-resistant Enterococcus faecium MEFA 0039 by CLSI agar microdilution method
Streptococcus = assay: Antibacterial activity against Streptococcus gamma 32206 by CLSI agar microdilution method
Enterococcus faecium [14] = assay: Antibacterial activity against vancomycin-sensitive Enterococcus faecium ATCC 35667 by CLSI agar microdilution method
Enterococcus faecium [15] = assay: Antibacterial activity against vancomycin-resistant Enterococcus faecium MEFA 0039 by CLSI agar microdilution method relative to vancomycin

With `CN[C@H](CC(C)C)C(=O)N[C@H]1C(=O)N[C@@H](CC(N)=O)C(=O)N[C@H]2C(=O)N[C@H]3C(=O)N[C@H](C(=O)N[C@@H](C(=O)O)c4cc(O)cc(O)c4-c4cc3ccc4O)[C@H](O[C@H]3C[C@](C)(N)[C@H](O)[C@H](C)O3)c3ccc(c(Cl)c3)Oc3cc2cc(c3O[C@@H]2O[C@H](CO)[C@@H](O)[C@H](O)[C@H]2O[C@H]2C[C@](C)(NCc3cccc(Br)c3)[C@H](O)[C@H](C)O2)Oc2ccc(cc2Cl)[C@H]1O` the MIC (Enterococcus faecalis [1]) was 0.25 µg/mL (≈ 0.142 µM), the “fold change (FC)” value (Enterococcus faecium [2]) was 4 and the MIC (Staphylococcus aureus [3]) was 1 µg/mL (≈ 0.568 µM). For the same compound, the MIC (Staphylococcus aureus [4]) was 0.78 µg/mL (≈ 0.443 µM), the MIC (Staphylococcus aureus [5]) was 0.5 µg/mL (≈ 0.284 µM) and the MIC (Streptococcus pneumoniae [6]) was 0.78 µg/mL (≈ 0.443 µM). It also gave an MIC (Staphylococcus) of 0.78 µg/mL (≈ 0.443 µM), an MIC (Enterococcus faecalis [7]) of 0.5 µg/mL (≈ 0.284 µM) and an MIC (Enterococcus faecium [8]) of 0.78 µg/mL (≈ 0.443 µM). The MIC (Streptococcus pneumoniae [9]) was ≤ 0.031 µg/mL, the MIC (Streptococcus pneumoniae [10]) was ≤ 0.031 µg/mL and the MIC [11] was > 25 µg/mL. The “fold change (FC)” value (Enterococcus faecalis [12]) was 4, the MIC (Enterococcus faecium [13]) was 2 µg/mL (≈ 1.14 µM) and the MIC (Streptococcus) was 3.13 µg/mL (≈ 1.78 µM). The MIC (Enterococcus faecium [14]) was ≤ 0.031 µg/mL.
With `CN[C@H](CC(C)C)C(=O)N[C@H]1C(=O)N[C@@H](CC(N)=O)C(=O)N[C@H]2C(=O)N[C@H]3C(=O)N[C@H](C(=O)N[C@@H](C(=O)O)c4cc(O)cc(O)c4-c4cc3ccc4O)[C@H](O[C@H]3C[C@](C)(N)[C@H](O)[C@H](C)O3)c3ccc(c(Cl)c3)Oc3cc2cc(c3O[C@@H]2O[C@H](CO)[C@@H](O)[C@H](O)[C@H]2O[C@H]2C[C@](C)(NCc3ccc(C(C)C)cc3)[C@H](O)[C@H](C)O2)Oc2ccc(cc2Cl)[C@H]1O` the MIC (Enterococcus faecalis [1]) was 0.5 µg/mL (≈ 0.29 µM), the “fold change (FC)” value (Enterococcus faecium [2]) was 4 and the MIC (Staphylococcus aureus [3]) was 1 µg/mL (≈ 0.58 µM). The MIC (Staphylococcus aureus [4]) was 1.56 µg/mL (≈ 0.905 µM), the MIC (Staphylococcus aureus [5]) was 0.5 µg/mL (≈ 0.29 µM) and the MIC (Streptococcus pneumoniae [6]) was 0.78 µg/mL (≈ 0.452 µM). For the same compound, the MIC (Staphylococcus) was 1.56 µg/mL (≈ 0.905 µM), the MIC (Enterococcus faecalis [7]) was 0.5 µg/mL (≈ 0.29 µM) and the MIC (Enterococcus faecium [8]) was 1.56 µg/mL (≈ 0.905 µM). The MIC (Streptococcus pneumoniae [9]) was ≤ 0.031 µg/mL, the MIC (Streptococcus pneumoniae [10]) was ≤ 0.031 µg/mL and the MIC [11] was 6.25 µg/mL (≈ 3.62 µM). The “fold change (FC)” value (Enterococcus faecalis [12]) was 4, the MIC (Enterococcus faecium [13]) was 2 µg/mL (≈ 1.16 µM) and the MIC (Streptococcus) was 1.56 µg/mL (≈ 0.905 µM). For the same compound, the MIC (Enterococcus faecium [14]) was ≤ 0.031 µg/mL.
For `CN[C@H](CC(C)C)C(=O)N[C@H]1C(=O)N[C@@H](CC(N)=O)C(=O)N[C@H]2C(=O)N[C@H]3C(=O)N[C@H](C(=O)N[C@@H](C(=O)O)c4cc(O)cc(O)c4-c4cc3ccc4O)[C@H](O[C@H]3C[C@](C)(N)[C@H](O)[C@H](C)O3)c3ccc(c(Cl)c3)Oc3cc2cc(c3O[C@@H]2O[C@H](CO)[C@@H](O)[C@H](O)[C@H]2O[C@H]2C[C@](C)(NCc3ccccc3Cl)[C@H](O)[C@H](C)O2)Oc2ccc(cc2Cl)[C@H]1O`, the MIC (Enterococcus faecalis [1]) was 0.5 µg/mL (≈ 0.291 µM), the MIC (Staphylococcus aureus [3]) was 1 µg/mL (≈ 0.582 µM) and the MIC (Staphylococcus aureus [4]) was 1.56 µg/mL (≈ 0.909 µM). For the same compound, the MIC (Staphylococcus aureus [5]) was 0.5 µg/mL (≈ 0.291 µM), the MIC (Streptococcus pneumoniae [6]) was 0.78 µg/mL (≈ 0.454 µM) and the “fold change (FC)” value (Enterococcus faecium [15]) was 4. The MIC (Staphylococcus) was 3.13 µg/mL (≈ 1.82 µM), the MIC (Enterococcus faecalis [7]) was 0.5 µg/mL (≈ 0.291 µM) and the MIC (Enterococcus faecium [8]) was 1.56 µg/mL (≈ 0.909 µM). For the same compound, the MIC (Streptococcus pneumoniae [9]) was ≤ 0.031 µg/mL, the MIC (Streptococcus pneumoniae [10]) was 0.125 µg/mL (≈ 0.0728 µM) and the MIC [11] was 6.25 µg/mL (≈ 3.64 µM). The “fold change (FC)” value (Enterococcus faecalis [12]) was 4, the MIC (Enterococcus faecium [13]) was 8 µg/mL (≈ 4.66 µM) and the MIC (Streptococcus) was 1.56 µg/mL (≈ 0.909 µM). The MIC (Enterococcus faecium [14]) was 0.25 µg/mL (≈ 0.146 µM).
In the case of `CN[C@H](CC(C)C)C(=O)N[C@H]1C(=O)N[C@@H](CC(N)=O)C(=O)N[C@H]2C(=O)N[C@H]3C(=O)N[C@H](C(=O)N[C@@H](C(=O)O)c4cc(O)cc(O)c4-c4cc3ccc4O)[C@H](O[C@H]3C[C@](C)(N)[C@H](O)[C@H](C)O3)c3ccc(c(Cl)c3)Oc3cc2cc(c3O[C@@H]2O[C@H](CO)[C@@H](O)[C@H](O)[C@H]2O[C@H]2C[C@](C)(NCc3ccccc3Br)[C@H](O)[C@H](C)O2)Oc2ccc(cc2Cl)[C@H]1O`, the MIC (Enterococcus faecalis [1]) is reported as 0.25 µg/mL (≈ 0.142 µM), the MIC (Staphylococcus aureus [3]) is reported as 1 µg/mL (≈ 0.568 µM) and the MIC (Staphylococcus aureus [4]) is reported as 1.56 µg/mL (≈ 0.886 µM). For the same compound, the MIC (Staphylococcus aureus [5]) was 0.5 µg/mL (≈ 0.284 µM), the MIC (Streptococcus pneumoniae [6]) was 0.195 µg/mL (≈ 0.111 µM) and the “fold change (FC)” value (Enterococcus faecium [15]) was 4. For the same compound, the MIC (Staphylococcus) was 1.56 µg/mL (≈ 0.886 µM), the MIC (Enterococcus faecalis [7]) was 0.5 µg/mL (≈ 0.284 µM) and the MIC (Enterococcus faecium [8]) was 1.56 µg/mL (≈ 0.886 µM). For the same compound, the MIC (Streptococcus pneumoniae [9]) was ≤ 0.031 µg/mL, the MIC (Streptococcus pneumoniae [10]) was 0.063 µg/mL (≈ 0.0358 µM) and the MIC [11] was > 25 µg/mL. The “fold change (FC)” value (Enterococcus faecalis [12]) was 4, the MIC (Enterococcus faecium [13]) was 4 µg/mL (≈ 2.27 µM) and the MIC (Streptococcus) was 0.39 µg/mL (≈ 0.221 µM). It also gave an MIC (Enterococcus faecium [14]) of 0.125 µg/mL (≈ 0.071 µM).
